Assay results as given in patent publication US7202245B2, “Substituted 4-amino[1,2,4]triazolo[4,3-a] quinoxalines” (Pfizer Inc., priority 2003, dated 2007).

Target: T1, GSK-3 (Homo sapiens, UniProt P49841)
T1 construct: made in house; as in Stambolic et al. 1996
Assay: GSK-3 inhibition, cell-free 33P-ATP peptide substrate assay
Type: biochemical
Details: read-out: inhibitory activity, expressed as IC50's, against GSK-3
Method: The specific activities of the compounds of formula (I) in inhibiting GSK-3 can be determined in both cell-free and cell-based assays, both of which have been previously described in the relevant art. See, for example, U.S. Pat. Nos. 6,417,185 and 6,489,344, the disclosures of which are incorporated herein by reference in their entirety.
A cell-free testing assay can be generally carried out by incubating GSK-3 with a peptide substrate, radiolabeled ATP (e.g., for example, […], both of which are available from Amersham; Arlington Heights, Ill.), magnesium ions, and the compound to be assayed. […] The amount of γ^33P or γ^32P remaining in each well after washing is then quantified to determine the amount of radiolabeled phosphate incorporated into the peptide substrate. […]
Another example of a GSK-3 testing assay, similar to the one described hereinabove, is as follows: enzyme activities are assayed as the incorporation of ^33P from the gamma phosphate of ^33P-ATP (Amersham; Arlington Heights, Ill.; catalog #AH-9968) into biotinylated peptide substrate PKTP-KKAKKL. […] The final concentration of ATP is 0.5 μM (final specific radioactivity of 4 μCi/nmol), and the final concentration of substrate is 0.75 μM. […] Radioactivity associated with the beads is then quantified by standard scintillation counting. […]

T1 sequence (P49841 whole entry): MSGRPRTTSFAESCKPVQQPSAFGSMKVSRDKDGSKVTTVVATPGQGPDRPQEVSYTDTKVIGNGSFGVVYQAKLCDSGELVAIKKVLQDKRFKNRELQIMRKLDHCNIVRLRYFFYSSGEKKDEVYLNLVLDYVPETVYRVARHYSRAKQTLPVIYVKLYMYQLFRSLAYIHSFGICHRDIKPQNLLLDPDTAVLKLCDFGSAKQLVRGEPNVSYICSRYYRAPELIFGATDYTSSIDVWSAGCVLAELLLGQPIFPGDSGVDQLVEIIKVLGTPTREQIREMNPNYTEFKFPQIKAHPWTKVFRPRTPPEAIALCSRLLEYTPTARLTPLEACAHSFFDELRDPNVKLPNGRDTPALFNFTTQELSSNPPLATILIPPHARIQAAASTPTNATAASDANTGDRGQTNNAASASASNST

For O=c1[nH]nc2c(NCCNc3ccc(C(F)(F)F)cn3)nc3ccc(F)cc3n12 [Example 71, 8-Fluoro-4-[2-(5-trifluoromethyl-pyridin-2-Ylamino)-ethylamino]-2H-[1,2,4]triazolo[4,3-a]quinoxalin-1-one], the IC50 was 6 nM.
